Literature values as cited in US20250099634A1, “METHOD OF TREATING CANCER” (Novartis AG, priority 2023, published 2025).

System: G1-2 midgut and pancreatic NET
Details: 120 mg/month, cited from earlier work

CC(C)[C@@H]1NC(=O)[C@H](CCCCN)NC(=O)[C@@H](Cc2c[nH]c3ccccc23)NC(=O)[C@H](Cc2ccc(O)cc2)NC(=O)[C@@H](NC(=O)[C@H](N)Cc2ccc3ccccc3c2)CSSC[C@@H](C(=O)N[C@H](C(N)=O)[C@@H](C)O)NC1=O [lanreotide]
HR for progression or death with lanreotide vs. placebo (95% CI 0.30 to 0.73): 0.47
median PFS: not reached
